What was measured:
[1] = target: T1, BMP1 (Homo sapiens, UniProt P13497); assay: Inhibition of human BMP1 expressed in Escherichia coli assessed as residual activity using Abz-YVADAPK(Dnp)G-OH as substrate at 200 uM by fluorescence assay relative to control; settings: probe Abz-YVADAPK(Dnp)G-OH, read-out: Activity
T1 sequence (P13497 whole entry): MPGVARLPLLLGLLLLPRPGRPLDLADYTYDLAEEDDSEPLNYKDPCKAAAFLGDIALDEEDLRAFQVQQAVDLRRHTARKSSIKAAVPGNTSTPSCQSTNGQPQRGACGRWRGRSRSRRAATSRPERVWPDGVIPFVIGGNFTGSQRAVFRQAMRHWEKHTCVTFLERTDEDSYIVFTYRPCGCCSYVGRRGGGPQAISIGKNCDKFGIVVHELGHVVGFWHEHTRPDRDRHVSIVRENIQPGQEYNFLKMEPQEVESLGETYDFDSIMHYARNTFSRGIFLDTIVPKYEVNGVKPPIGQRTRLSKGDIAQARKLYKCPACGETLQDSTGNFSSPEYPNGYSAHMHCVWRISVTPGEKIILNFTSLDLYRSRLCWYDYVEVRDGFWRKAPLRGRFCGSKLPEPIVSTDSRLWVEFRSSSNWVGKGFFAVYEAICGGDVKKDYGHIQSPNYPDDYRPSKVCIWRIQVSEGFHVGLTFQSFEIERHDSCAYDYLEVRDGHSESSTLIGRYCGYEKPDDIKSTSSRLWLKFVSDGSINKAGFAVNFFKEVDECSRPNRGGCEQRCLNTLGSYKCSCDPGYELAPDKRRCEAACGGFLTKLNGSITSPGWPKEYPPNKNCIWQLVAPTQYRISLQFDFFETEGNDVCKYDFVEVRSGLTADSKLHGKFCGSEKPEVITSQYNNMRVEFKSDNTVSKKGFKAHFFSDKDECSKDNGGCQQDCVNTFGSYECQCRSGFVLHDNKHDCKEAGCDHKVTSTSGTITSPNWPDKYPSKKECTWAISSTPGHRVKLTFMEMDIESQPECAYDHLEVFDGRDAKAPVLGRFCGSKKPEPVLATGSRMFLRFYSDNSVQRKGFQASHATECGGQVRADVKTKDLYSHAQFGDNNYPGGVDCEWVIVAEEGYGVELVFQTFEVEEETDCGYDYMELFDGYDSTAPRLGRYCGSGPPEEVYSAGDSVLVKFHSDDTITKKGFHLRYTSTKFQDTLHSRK

[2] = target: T2, meprin alpha (Homo sapiens, UniProt Q16819); assay: Inhibition of recombinant human meprin alpha expressed in insect cells assessed as residual activity using Abz-YVADAPK(Dnp)G-OH as substrate at 200 uM by fluorescence assay relative to control; settings: probe Abz-YVADAPK(Dnp)G-OH, read-out: Activity
T2 sequence (Q16819 whole entry): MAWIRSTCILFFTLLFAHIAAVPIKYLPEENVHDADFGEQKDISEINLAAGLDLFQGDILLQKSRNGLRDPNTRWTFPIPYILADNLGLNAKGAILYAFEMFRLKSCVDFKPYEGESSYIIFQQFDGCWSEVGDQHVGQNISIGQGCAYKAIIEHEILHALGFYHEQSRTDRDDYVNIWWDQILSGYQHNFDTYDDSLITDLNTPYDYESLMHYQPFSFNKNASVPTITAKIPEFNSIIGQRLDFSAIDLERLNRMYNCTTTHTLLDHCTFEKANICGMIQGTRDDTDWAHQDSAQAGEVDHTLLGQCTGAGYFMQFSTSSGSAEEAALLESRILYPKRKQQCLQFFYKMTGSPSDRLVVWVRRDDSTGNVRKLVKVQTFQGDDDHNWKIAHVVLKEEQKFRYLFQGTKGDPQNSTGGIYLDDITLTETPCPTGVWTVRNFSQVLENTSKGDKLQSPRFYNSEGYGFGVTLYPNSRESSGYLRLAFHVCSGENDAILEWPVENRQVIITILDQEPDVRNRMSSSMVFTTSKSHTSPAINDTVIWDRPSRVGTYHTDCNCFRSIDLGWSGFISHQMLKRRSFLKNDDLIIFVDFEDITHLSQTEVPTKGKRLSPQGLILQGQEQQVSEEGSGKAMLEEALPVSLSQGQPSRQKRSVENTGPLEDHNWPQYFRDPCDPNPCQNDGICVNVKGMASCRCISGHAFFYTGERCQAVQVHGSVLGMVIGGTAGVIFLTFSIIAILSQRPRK

[3] = Drug absorption in Sprague-Dawley rat at 5 mg/kg, po by LC-MS analysis; format: ADME, organism-based; settings: in vivo, read-out: Fabs
[4] = Cmax in Sprague-Dawley rat at 5 mg/kg, po by LC-MS analysis; format: ADME, organism-based; set-up: dose 5 mg/kg, route oral; settings: in vivo
[5] = Tmax in Sprague-Dawley rat at 5 mg/kg, po by LC-MS analysis; format: ADME, organism-based; settings: in vivo
[6] = test system: Rattus norvegicus; assay: Volume of distribution in Sprague-Dawley rat at 5 mg/kg, po by LC-MS analysis; format: ADME, organism-based; settings: in vivo
[7] = Drug absorption in Sprague-Dawley rat at 10 mg/kg, ip by LC-MS analysis; format: ADME, organism-based; settings: in vivo, read-out: Fabs
[8] = Tmax in Sprague-Dawley rat at 10 mg/kg, ip by LC-MS analysis; format: ADME, organism-based; settings: in vivo
[9] = Clearance in Sprague-Dawley rat at 6 mg/kg, iv by LC-MS analysis; format: ADME, organism-based; settings: in vivo
[10] = Volume of distribution at steady state in Sprague-Dawley rat at 6 mg/kg, iv by LC-MS analysis; format: ADME, organism-based; settings: in vivo, read-out: Vdss
[11] = target: MMP2 (Homo sapiens, UniProt P08253); assay: Inhibition of human MMP2 assessed as residual activity using Mca-PLGL-(DapDnp)-AR-NH2 as substrate at 200 uM by fluorescence assay relative to control; settings: human MMP2 enzyme, probe Mca-PLGL-(DapDnp)-AR-NH2, read-out: Activity
Chain of MMP2 (P08253 whole entry): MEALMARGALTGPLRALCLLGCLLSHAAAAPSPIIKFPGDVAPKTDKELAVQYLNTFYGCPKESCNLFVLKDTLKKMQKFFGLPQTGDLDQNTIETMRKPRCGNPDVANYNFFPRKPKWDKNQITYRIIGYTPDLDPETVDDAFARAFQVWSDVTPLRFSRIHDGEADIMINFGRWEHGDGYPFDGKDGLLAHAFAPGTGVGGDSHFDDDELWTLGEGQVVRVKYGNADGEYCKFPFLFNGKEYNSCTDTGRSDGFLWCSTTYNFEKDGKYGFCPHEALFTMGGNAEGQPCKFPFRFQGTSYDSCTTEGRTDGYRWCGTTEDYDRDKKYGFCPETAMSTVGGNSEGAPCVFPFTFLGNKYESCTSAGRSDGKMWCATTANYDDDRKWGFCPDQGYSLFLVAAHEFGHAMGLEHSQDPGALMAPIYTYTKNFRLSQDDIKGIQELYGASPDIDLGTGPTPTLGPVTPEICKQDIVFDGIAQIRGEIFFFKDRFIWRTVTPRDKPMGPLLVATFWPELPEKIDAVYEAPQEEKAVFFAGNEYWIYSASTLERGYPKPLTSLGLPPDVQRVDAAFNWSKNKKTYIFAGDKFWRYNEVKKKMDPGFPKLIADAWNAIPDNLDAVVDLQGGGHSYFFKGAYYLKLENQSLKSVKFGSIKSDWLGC

[12] = target: MMP13 (Homo sapiens, UniProt P45452); assay: Inhibition of human MMP13 assessed as residual activity using Mca-PLGL-(DapDnp)-AR-NH2 as substrate at 200 uM by fluorescence assay relative to control; settings: human MMP13 enzyme, probe Mca-PLGL-(DapDnp)-AR-NH2, read-out: Activity
[13] = target: ADAM17 (Homo sapiens, UniProt P78536); assay: Inhibition of human ADAM17 assessed as residual activity using Abz-LANAVRSSSR-(DapDnp)-AR-NH2 as substrate at 200 uM by fluorescence assay relative to control; settings: human ADAM17 enzyme, probe Abz-LANAVRSSSR-(DapDnp)-AR-NH2, read-out: Activity
Chain of ADAM17 (P78536 whole entry): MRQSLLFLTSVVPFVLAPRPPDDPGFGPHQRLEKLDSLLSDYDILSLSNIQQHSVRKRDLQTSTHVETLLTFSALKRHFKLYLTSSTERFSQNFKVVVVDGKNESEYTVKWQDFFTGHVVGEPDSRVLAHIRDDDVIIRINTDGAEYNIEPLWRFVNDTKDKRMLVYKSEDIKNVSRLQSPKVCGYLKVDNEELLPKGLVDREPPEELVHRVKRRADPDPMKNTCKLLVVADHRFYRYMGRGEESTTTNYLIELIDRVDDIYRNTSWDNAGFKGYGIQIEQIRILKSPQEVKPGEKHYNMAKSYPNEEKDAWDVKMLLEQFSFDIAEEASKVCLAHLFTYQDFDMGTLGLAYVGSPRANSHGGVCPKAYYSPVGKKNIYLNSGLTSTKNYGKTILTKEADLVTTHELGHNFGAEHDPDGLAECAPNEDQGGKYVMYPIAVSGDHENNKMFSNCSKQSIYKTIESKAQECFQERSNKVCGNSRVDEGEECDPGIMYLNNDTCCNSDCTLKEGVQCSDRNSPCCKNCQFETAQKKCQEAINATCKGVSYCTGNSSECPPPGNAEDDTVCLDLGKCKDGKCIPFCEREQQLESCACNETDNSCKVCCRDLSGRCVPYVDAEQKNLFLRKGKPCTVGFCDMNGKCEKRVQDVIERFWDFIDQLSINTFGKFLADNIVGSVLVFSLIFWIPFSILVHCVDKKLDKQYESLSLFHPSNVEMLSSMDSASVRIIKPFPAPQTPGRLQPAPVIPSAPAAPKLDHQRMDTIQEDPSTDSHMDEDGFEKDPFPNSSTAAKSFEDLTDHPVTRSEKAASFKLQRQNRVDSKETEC

[14] = target: CYP3A4 (Homo sapiens, UniProt P08684); assay: Inhibition of recombinant human CYP3A4 expressed in baculosomes assessed as residual activity at 25 uM using BOMCC substrate by fluorescence assay relative to control; format: ADME; settings: probe BOMCC, read-out: Activity
Chain of CYP3A4 (P08684 whole entry): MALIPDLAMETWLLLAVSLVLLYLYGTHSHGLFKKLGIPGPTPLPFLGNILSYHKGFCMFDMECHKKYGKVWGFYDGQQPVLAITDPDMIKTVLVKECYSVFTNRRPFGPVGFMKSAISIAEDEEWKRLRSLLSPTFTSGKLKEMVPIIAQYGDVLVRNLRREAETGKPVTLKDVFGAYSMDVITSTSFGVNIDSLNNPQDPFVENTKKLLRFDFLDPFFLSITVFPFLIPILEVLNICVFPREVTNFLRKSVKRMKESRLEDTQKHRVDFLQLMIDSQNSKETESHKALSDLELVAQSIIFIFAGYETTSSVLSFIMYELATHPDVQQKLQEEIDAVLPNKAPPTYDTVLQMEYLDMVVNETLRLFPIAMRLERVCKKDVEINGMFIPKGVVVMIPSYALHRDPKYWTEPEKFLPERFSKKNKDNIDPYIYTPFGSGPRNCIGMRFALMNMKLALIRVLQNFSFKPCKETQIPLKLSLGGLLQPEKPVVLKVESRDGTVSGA

[15] = test system: HepG2; assay: Cytotoxicity in human HepG2 cells assessed as cell viability at 100 uM after 24 hrs by CytoTox-ONE-based assay relative to control; format: functional; settings: HepG2, 24 h, read-out: Activity
[16] = species on record: Homo sapiens; assay: Selectivity ratio of IC50 for recombinant human meprin alpha expressed in insect cells to IC50 for recombinant human meprin beta expressed in yeast

With O=C(CN(Cc1cccc(C(=O)O)c1)Cc1cccc(C(=O)O)c1)NO the activity at 200 µM [1] was 87%, the activity at 200 µM [2] was < 10% and the Fa [3] was 13%. The Cmax [4] was 0.34 µg/mL, the Tmax [5] was 10.2 min and the Vd [6] was 0.073 L. The Fa [7] was 84%, the Tmax [8] was 7.2 min and the clearance [9] was 1.78 L/h/kg. For the same compound, the Vd [10] was 0.42 L/kg, the activity at 200 µM [11] was 64% and the activity at 200 µM [12] was 78%. It also gave an activity at 200 µM [13] of 76%, an activity at 25 µM [14] of 86% and a viability at 100 µM [15] of 97%. It also gave a Ratio IC50 [16] of 300.

Reference: ChEMBL document CHEMBL4184323, “Structure-Guided Design, Synthesis, and Characterization of Next-Generation Meprin β Inhibitors” (J Med Chem, 2018)
